In brackets after ≈: the same amount, converted by molar mass. Each block holds one compound with its values, some of them ahead of it.
Key:
[1] = tested on: PANC-1; assay: Antitumor activity against human PANC-1; format: functional, cell-based; details: pooled result: one value given for 3 cell lines, strains, targets or settings
[2] = tested on: PC-3; assay: Antitumor activity against human PC-3 cells incubated for 72 hrs by SRB calorimetric assay; format: functional, cell-based; details: PC-3, 72 h
[3] = tested on: Capan-2; assay: Antitumor activity against human Capan-2 cells incubated for 48 to 72 hrs by MTS Assay; format: functional, cell-based
[4] = tested on: BXPC-3; assay: Antitumor activity against human BXPC-3 cells incubated for 48 to 72 hrs by MTS Assay; format: functional, cell-based
[5] = tested on: PANC-1; assay: Antitumor activity against human PANC-1 cells incubated for 48 to 72 hrs by MTS Assay; format: functional, cell-based
[6] = tested on: L5178Y; assay: Cytotoxicity against mouse L5178Y; format: toxicity, cell-based
[7] = tested on: PANC-1; assay: Antitumor activity against human PANC-1 cells assessed as cell growth inhibition incubated for 48 hrs by CCK-8 assay; format: functional, cell-based; details: PANC-1, 48 h
[8] = tested on: SW1990; assay: Antitumor activity against human SW1990 cells assessed as cell growth inhibition incubated for 48 hrs by CCK-8 assay; format: functional, cell-based; details: SW1990, 48 h
[9] = tested on: MCF7; assay: Antitumor activity against human MCF7 cells assessed as cell growth inhibition incubated for 3 days; format: functional, cell-based; details: MCF7, 72 h
[10] = tested on: HeLa; assay: Antitumor activity against human HeLa cells assessed as cell growth inhibition incubated for 3 days; format: functional, cell-based; details: 72 h
[11] = tested on: C-33-A; assay: Antitumor activity against human C33A cells assessed as cell growth inhibition incubated for 3 days; format: functional, cell-based; details: 72 h
[12] = tested on: COLO 201; assay: Antitumor activity against human COL0201 cells assessed as cell growth inhibition incubated for 3 days; format: functional, cell-based; details: COLO 201, 72 h
[13] = tested on: NCI-H1299; assay: Antiproliferative activity against human H1299 cells incubated for 72 hrs by absorbance based assay; format: functional, cell-based; details: NCI-H1299, 72 h
[14] = tested on: HeLa; assay: Antiproliferative activity against human HeLa cells incubated for 72 hrs by absorbance based assay; format: functional, cell-based
[15] = tested on: HepG2; assay: Antitumor activity against human HepG2 incubated for 48 hrs by MTT assay; format: functional, cell-based; details: HepG2, 48 h
[16] = tested on: MCF7; assay: Antitumor activity against human MCF-7 incubated for 48 hrs by MTT assay; format: functional, cell-based; details: MCF7, 48 h
[17] = tested on: HeLa; assay: Antitumor activity against human HeLa cells assessed as cell growth inhibition incubated for 72 hrs by MTT assay; format: functional, cell-based

IC50 [1]: 0.035 µM
SMILES: CO[C@H]1/C=C/C=C/C=C/C[C@H](OC(=O)[C@@H](C)NC(=O)C2=CCCCC2)[C@H](C)[C@@H](O)/C(C)=C\CCc2cc(O)cc(c2)NC(=O)C1

IC50 [2]: 0.1 µM
IC50 [4]: 0.1 µM
IC50 [5]: 0.1 µM
SMILES: CO[C@H]1/C=C/C=C/C=C/C[C@H](OC(=O)[C@@H](C)NC(=O)CCCC(C)C)[C@H](C)[C@@H](O)/C(C)=C\CCc2cc(O)cc(c2)NC(=O)C1
IC50 [3]: 0.1 µM

IC50 [1]: 0.17 µM
SMILES: CO[C@H]1/C=C/C=C/C=C/C[C@H](OC(=O)[C@@H](C)NC(=O)CC(C)C)[C@H](C)[C@@H](O)/C(C)=C\CCc2cc(O)cc(c2)NC(=O)C1

IC50 [1]: 0.17 µM
SMILES: CO[C@H]1/C=C/C=C/C=C/C[C@H](OC(=O)[C@@H](C)NC(=O)CCC(C)C)[C@H](C)[C@@H](O)/C(C)=C\CCc2cc(O)cc(c2)NC(=O)C1

SMILES: CO[C@H]1/C=C/C=C/C=C/C[C@H](OC(=O)[C@@H](C)NC(=O)C2CCCCC2)[C@H](C)[C@@H](O)/C(C)=C\CCc2cc(O[C@@H]3O[C@H](CO)[C@@H](O)[C@H](O)[C@H]3O)cc(c2O)NC(=O)C1
MIC [6]: 1 µM (≈ 0.801 µg/mL)

IC50 [7]: 8.29 µM
IC50 [8]: 8.29 µM
SMILES: CO[C@@H]1CC(=O)N2c3cc(O)cc4c3O[C@@H](/C=C/C=C/C[C@H](OC(=O)[C@@H](C)NC(=O)C3CCCCC3)[C@H](C)[C@@H](O)/C(C)=C\CC4)[C@H]12

IC50 [9]: 0.00085 µM
IC50 [10]: 0.00085 µM
IC50 [12]: 0.00085 µM
SMILES: CO[C@H]1/C=C/C=C/C=C/C[C@H](OC(=O)[C@@H](C)NC(=O)C2CCCCC2)[C@H](C)[C@@H](O)/C(C)=C\CCc2cc3c(c(c2O)NC(=O)C1)SCC(=O)N3
IC50 [11]: 0.00085 µM

IC50 [7]: 7.79 µM
IC50 [8]: 7.79 µM
SMILES: CO[C@@H]1CC(=O)Nc2c(O)c3cc4c2[C@H](/C=C/C=C/C[C@H](O)[C@H](C)[C@@H](OC(=O)[C@@H](C)NC(=O)C2CCCCC2)/C(C)=C\CC3)[C@H]1O4

IC50 [4]: ≥ 10 µM
IC50 [5]: ≥ 10 µM
SMILES: C/C=C(\C)C(=O)N[C@H](C)C(=O)O[C@H]1C/C=C/C=C/C=C/[C@H](OC)CC(=O)Nc2cc(O)cc(c2)CC/C=C(/C)[C@H](O)[C@H]1C
IC50 [3]: ≥ 10 µM

IC50 [13]: > 10 µM
IC50 [14]: 10 µM
SMILES: C[C@@H]1[C@@H](O)[C@H](C)[C@@H](O)CCc2cc(O)cc(c2)NC(=O)C[C@@H](O)/C=C/C=C/C=C/C[C@@H]1O

IC50 [7]: 5.81 µM
IC50 [8]: 5.81 µM
SMILES: CO[C@@H]1CC(=O)Nc2c(O)c3cc4c2[C@@H](/C=C/C=C/C[C@H](OC(=O)[C@@H](C)NC(=O)C2CCCCC2)[C@H](C)[C@@H](O)/C(C)=C\CC3)[C@@H]1O4

IC50 [13]: > 10 µM
IC50 [14]: 10 µM
SMILES: CO[C@@H]1CC(=O)N2c3cc(O)cc4c3O[C@H](/C=C/C=C/C[C@H](O)[C@H](C)[C@@H](O)/C(C)=C\CC4)[C@H]12

SMILES: COc1cc2c(O)c(c1)NC(=O)C[C@@H](OC)/C=C/C=C/C=C/C[C@H](OC(=O)[C@@H](C)NC(=O)C1CCCCC1)[C@H](C)[C@@H](O)/C(C)=C\CC2
MIC [6]: 0.17 µM (≈ 0.111 µg/mL)

IC50 [13]: > 10 µM
IC50 [14]: 10 µM
SMILES: CO[C@H]1/C=C/C=C/C=C/C[C@H](O)[C@H](C)[C@@H](O)/C(C)=C\CCc2c(O)c(cc3ncsc23)NC(=O)C1

IC50 [13]: > 10 µM
IC50 [14]: 10 µM
SMILES: CO[C@@H]1CC(=O)N2c3cc(O)cc4c3O[C@@H](/C=C/C=C/C[C@H](O)[C@H](C)[C@@H](O)/C(C)=C\CC4)[C@@H]12

IC50 [9]: 0.0031 µM
IC50 [10]: 0.0031 µM
IC50 [12]: 0.0031 µM
SMILES: CO[C@H]1/C=C/C=C/C=C/C[C@H](OC(=O)[C@@H](C)NC(=O)C2=CCCCC2)[C@H](C)[C@@H](O)/C(C)=C\CCc2cc3c(c(c2O)NC(=O)C1)SCC(=O)N3
IC50 [11]: 0.0031 µM

IC50 [7]: 3.99 µM
IC50 [8]: 3.99 µM
SMILES: CO[C@@H]1CC(=O)Nc2c(O)c3cc4c2[C@H](/C=C/C=C/C[C@H](OC(=O)[C@@H](C)NC(=O)C2CCCCC2)[C@H](C)[C@@H](O)/C(C)=C\CC3)[C@H]1O4

IC50 [15]: 6.74 µM
IC50 [16]: 6.74 µM
SMILES: CO[C@H]1/C=C/C=C/C=C/C[C@H](OC(=O)[C@@H](C)NC(=O)C2=CCCC2)[C@H](C)[C@@H](O)/C(C)=C\CCc2cc(O)cc(c2)NC(=O)C1

IC50 [17]: > 10 µM
SMILES: CO[C@H]1/C=C/C=C/C=C/C[C@H](OC(=O)[C@@H](C)NC(=O)C2CCCCC2)[C@H](C)C(=O)/C(C)=C\CCc2cc(O)cc(c2O)NC(=O)C1

IC50 [9]: 0.15 µM
IC50 [10]: 0.15 µM
IC50 [12]: 0.15 µM
SMILES: CO[C@H]1/C=C/C=C/C=C/C[C@H](OC(=O)[C@@H](C)NC(=O)CC(C)C)[C@H](C)[C@@H](O)/C(C)=C\CCc2c(O)c(cc3c2SCC(=O)N3)NC(=O)C1
IC50 [11]: 0.15 µM

IC50 [15]: 7.33 µM
IC50 [16]: 7.33 µM
SMILES: CO[C@H]1/C=C/C=C/C=C/C[C@H](OC(=O)[C@@H](C)NC(=O)C2CCC2)[C@H](C)[C@@H](O)/C(C)=C\CCc2cc(O)cc(c2)NC(=O)C1

IC50 [7]: > 10 µM
IC50 [8]: > 10 µM
SMILES: CO[C@@H]1CC(=O)Nc2c(O)c3cc4c2[C@H](/C=C/C=C/C[C@H](OC(=O)[C@@H](C)NC(=O)CC(C)C)[C@H](C)[C@@H](O)/C(C)=C\CC3)[C@H]1O4

From ChEMBL document CHEMBL5247589, “Natural occurrence, bioactivity, and biosynthesis of triene-ansamycins” (Eur J Med Chem, 2022)
